Where “and” joins values, the source holds several entries; their conditions need not be identical. Equal values may be shown once.
Experiments:
[1] = Serum calcification propensity assay after 4.5 h incubation in enzymatically active human serum; conditions: compound at c350 concentration, 37 °C; individual donors, Fig. 2e
[2] = system: primary human VSMCs; assay: VSMC viability (MTS), compounds only; assay type: cell-based; conditions: for VSMC viability (MTS), % of medium control: compound only
[3] = system: primary human VSMCs; assay: VSMC viability (MTS) in CPP2-supplemented medium; assay type: cell-based
Procedure: (§1) Macrophage accumulation and inflammation coincide with the initial phase of calcification. To this end, VSMCs and THP-1-derived macrophages were exposed to CPP2-supplemented medium. CPP2 prepared from human serum as described previously[61] (Supplementary Figs. 6 and 7), induced a pronounced VSMC monolayer calcification after 48 h, which was decreased by (OEG2)2-IP4 in a dose-dependent fashion, and the effect became significant at 10 µM (Fig. 3e). […] Both H2O2 (proxy for oxidative stress) and tumor necrosis factor-alpha (TNF-α) (proxy for inflammatory response) levels were assayed in the VSMC culture supernatants subsequent to CPP2 treatment with and without compounds[30]. However, no increase in H2O2 nor TNF-α compared to control could be detected in either assay. For the CPP-induced VSMC calcification assay (Fig. 3e) a roughly 10-fold higher concentration of (OEG2)2-IP4 was necessary to achieve similar activity as in the CaP-induced VSMC calcification assay (Fig. 3b). […] In the CaP assay, low inhibitor concentration may be sufficient to inhibit crystal nucleation, whereas for the CPP assay higher inhibitor concentrations may be needed to achieve sufficient particle stabilization by chemisorption of inhibitor onto CPPs. Similar results have been reported for hydrogen sulfide in the context of VC[62],[64]. […] An increase in the TNFα levels in the cell culture supernatants was not observed for (OEG2)2-IP4 with (Fig. 3h) and without (Supplementary Fig. 10) combined CPP2 treatment.
(§2) Cell viability was assessed using the MTS assay (CellTiter 96® Aqueous One Solution Cell Proliferation Assay, G3580; Promega, Madison, WI, USA) according to the manufacturer’s instructions. Assays using combined treatment of CPPs or CaP and test compounds were performed in 24-well plates using 20,000 cells per well and assays using test compounds only were performed in a 96-well plate format with a seeding density of 10,000 (VSMC) or 50,000 (THP-1) cells per well, respectively. For controls, cells were treated with respective complete medium only and results were calculated as % of control.

[4] = VSMC viability (MTS) in CPP2-supplemented medium; assay type: cell-based, human; conditions: human, read-out: VSMC viability (MTS), % of medium control
Procedure: as §1, §2

[5] = Macrophage viability (MTS) with CPP2 and compounds; assay type: cell-based, human; conditions: human, THP-1-derived macrophages, read-out: Macrophage viability (MTS), % of medium control
Procedure: as §1
(§3) THP-1 cells were plated at a density of 200,000 cells/well in a 24-well plate, differentiated as stated above, and subsequently treated with or without CPP2 (50 μg Ca/mL) in complete medium with or without test compounds (3, 10, 30, 100 μM) for 24 h at 37 °C, 5% CO2.
as §2

[6] = system: THP-1-derived macrophages; assay: Macrophage viability (MTS) with CPP2 and compounds; assay type: cell-based, human
Procedure: as §1, §3, §2

[7] = system: primary human VSMCs; assay: CPP2-induced VSMC calcification; assay type: cell-based; conditions: for VSMC calcium deposition, % of CPP2 control: CPP2 50 µg Ca/mL
Procedure: as §1
Primary human VSMCs (C-12533, PromoCell, Heidelberg, Germany) were cultured according to the manufacturer's guidelines in SMC-2 culture medium (C-22062, PromoCell) and used up to passage 7. For calcification experiments cells were seeded onto 24-well plates (TPP) at a density of 20,000 cells/well and left to attach for 48–72 h. Complete medium was M199 medium (31150022, Thermo Fischer Scientific), supplemented with 10% v/v FBS (10270106, Thermo Fisher Scientific, Waltham, MA), 1% v/v penicillin/streptomycin (15140122, Thermo Fisher Scientific), and 4 mM L-glutamine (25030024, Thermo Fisher Scientific)[80]. Calcification of cell monolayers was induced as described previously[81] by treatment with CPP2-supplemented (50 µg Ca/mL) medium with or without test compounds (1, 3, 10, 30, and 100 µM) at a volume of 1 mL/well for 48 h at 37 °C, 5% CO2. In a second assay, calcification was induced similar to previous experiments[56] by cell treatment with or without test compounds (0.01, 0.1, 1, 10, and 100 µM) in complete medium supplemented with calcium (2.7 mM) and phosphate (2.5 mM) (CaP medium) at a volume of 1 mL/well for 5 days, and treatment medium was replaced on alternate days.
Calcium deposition on cell monolayers was assessed qualitatively by staining for calcium with 2% w/v Alizarin Red S aqueous solution (pH 4.2) (05600, Fluka Analytical). Cell monolayers in 24-well plates were washed with PBS (10010015, Thermo Fischer), fixed in 10% v/v NBF in PBS (F8775, Sigma-Aldrich) for 45 min at RT, washed with milli-Q water, incubated for 3 min with 300 µL Alizarin Red S solution, washed with milli-Q, and images were acquired using a Axiovert 35 microscope (Zeiss, Carl Zeiss Microscopy GmbH, Jena, Germany) at ×100 magnification. Calcium quantitation was performed after washing cells with PBS and then decalcifying cell monolayers with 0.1 M HCl overnight at 4 °C. Acidic supernatants were centrifuged (10,000 × g, 4 °C, 10 min) and calcium content was assessed using the calcium colorimetric assay.

[8] = system: primary human VSMCs; assay: VSMC viability (MTS) in high-CaP medium; assay type: cell-based
[9] = VSMC viability (MTS) in high-CaP medium; assay type: cell-based, human; conditions: human, read-out: VSMC viability (MTS), % of medium control
[10] = 0.01 µM in high-CaP medium, replicates Fig. 3d

COCCOCCO[C@@H]1[C@@H](OP(=O)(O)O)[C@H](OCCOCCOC)[C@@H](OP(=O)(O)O)[C@@H](OP(=O)(O)O)[C@H]1OP(=O)(O)O [(OEG2)2-IP4, 4,6-Di-O-(methoxy-diethyleneglycol)-myo-inositol-1,2,3,5-tetrakis(phosphate)]
ΔT50 after 4.5 h vs 0 h incubation in enzymatically active human serum [1]: -10 min and 0 min and 51 min and 10 min | VSMC viability (MTS), % of medium control ([2]; 0.01 µM, replicates Fig. 3a): 106.7% and 112.6% and 127.9% | VSMC viability (MTS), % of medium control ([2]; 0.1 µM): 105.4% and 101.1% and 125.7% | VSMC viability (MTS), % of medium control ([2]; 1 µM): 106.9% and 113.8% | VSMC viability (MTS), % of medium control ([2]; 10 µM): 100.7% and 120.7% | VSMC viability (MTS), % of medium control ([2]; 100 µM): 101.2% and 99.46% and 122.9% | changes in cell viability ([2]; 0.01–100 µM): did not lead to any changes in cell viability | VSMC viability in CPP2 setup [3]: did not reduce VSMC viability | VSMC viability (MTS), % of medium control ([3]; 1 µM with CPP2, replicates Fig. 3f): 111.835% and 81.6116% and 105.448% | VSMC viability (MTS), % of medium control ([3]; 3 µM with CPP2): 87.2434% and 103.748% | VSMC viability (MTS), % of medium control ([3]; 10 µM with CPP2): 94.1761% and 106.452% | VSMC viability (MTS), % of medium control ([3]; 30 µM with CPP2): 95.6307% and 101.925% | VSMC viability (MTS), % of medium control ([3]; 100 µM with CPP2): 103.228% and 101.178% | viability at 48 h, 3 µM ([4]; 3 µM with CPP2): 102% | viability at 48 h, 10 µM ([4]; 10 µM with CPP2): 104% | viability at 48 h, 30 µM ([4]; 30 µM with CPP2): 101% | viability at 48 h, 100 µM ([4]; 100 µM with CPP2): 93.7% | viability at 24 h, 3 µM ([5]; 3 µM + CPP2, replicates Fig. 3i): 100% | viability at 24 h, 10 µM ([5]; 10 µM + CPP2): 97.5% | viability at 24 h, 30 µM ([5]; 30 µM + CPP2): 96.5% | viability at 24 h, 100 µM ([5]; 100 µM + CPP2): 99.1% | Macrophage viability (MTS), % of medium control ([6]; 3 µM + CPP2, replicates Fig. 3i, 3 µM): 98.1% and 100.05% | Macrophage viability (MTS), % of medium control ([6]; 10 µM + CPP2, 10 µM): 99.92% and 100.59% | Macrophage viability (MTS), % of medium control ([6]; 30 µM + CPP2, 30 µM): 96.73% and 98.39% | Macrophage viability (MTS), % of medium control ([6]; 100 µM + CPP2, 100 µM): 94.54% and 99.09% | fold higher concentration necessary in CPP-induced vs CaP-induced VSMC calcification assay [7]: roughly 10 fold | VSMC calcium deposition, % of CPP2 control ([7]; 1 µM, 48 h, replicates Fig. 3e): 88.4113% and 80.5453% and 68.3456% and 69.0785% | VSMC calcium deposition, % of CPP2 control ([7]; 3 µM, 48 h): 92.4907% and 73.6279% and 53.9051% and 56.3804% | concentration at which decrease of CPP2-induced calcification became significant ([7]; 48 h): 10 µM | VSMC viability (MTS), % of medium control [8, 10]: 53.4% and 66.46% | VSMC viability (MTS), % of medium control ([8]; 0.1 µM in high-CaP medium): 53.2% and 65.81% | VSMC viability (MTS), % of medium control ([8]; 1 µM in high-CaP medium): 67.8% and 94.42% and 93.48% | VSMC viability (MTS), % of medium control ([8]; 10 µM in high-CaP medium): 90.2% and 89.04% | VSMC viability (MTS), % of medium control ([8]; 100 µM in high-CaP medium): 91.5% and 93.79% | cell viability vs high-CaP medium control ([8]; 0.01 and 0.1 µM): slightly decreased | viability at 5 days, 0.01 µM [9, 10]: 65.9% | viability at 5 days, 0.1 µM ([9]; 0.1 µM in high-CaP medium): 72.3% | viability at 5 days, 10 µM ([9]; 10 µM in high-CaP medium): 71.1% | viability at 5 days, 100 µM ([9]; 100 µM in high-CaP medium): 83.5%

From publication PMC7002685, “Inhibition of vascular calcification by inositol phosphates derivatized with ethylene glycol oligomers” (Nature Communications, 2020)
